Assays:
[1] = target: T1, Recombinant human LOXL2 (lysyl oxidase like 2) (Homo sapiens, UniProt Q9Y4K0); test: LOXL2 inhibition assay (fluorometric, cadaverine/Amplex Red/HRP); format: biochemical; conditions: IC50 class; recombinant human LOXL2, cadaverine substrate; read-out: Activity Range LOXL2
T1 construct: purchased R&D systems
T1 sequence (Q9Y4K0 26-774): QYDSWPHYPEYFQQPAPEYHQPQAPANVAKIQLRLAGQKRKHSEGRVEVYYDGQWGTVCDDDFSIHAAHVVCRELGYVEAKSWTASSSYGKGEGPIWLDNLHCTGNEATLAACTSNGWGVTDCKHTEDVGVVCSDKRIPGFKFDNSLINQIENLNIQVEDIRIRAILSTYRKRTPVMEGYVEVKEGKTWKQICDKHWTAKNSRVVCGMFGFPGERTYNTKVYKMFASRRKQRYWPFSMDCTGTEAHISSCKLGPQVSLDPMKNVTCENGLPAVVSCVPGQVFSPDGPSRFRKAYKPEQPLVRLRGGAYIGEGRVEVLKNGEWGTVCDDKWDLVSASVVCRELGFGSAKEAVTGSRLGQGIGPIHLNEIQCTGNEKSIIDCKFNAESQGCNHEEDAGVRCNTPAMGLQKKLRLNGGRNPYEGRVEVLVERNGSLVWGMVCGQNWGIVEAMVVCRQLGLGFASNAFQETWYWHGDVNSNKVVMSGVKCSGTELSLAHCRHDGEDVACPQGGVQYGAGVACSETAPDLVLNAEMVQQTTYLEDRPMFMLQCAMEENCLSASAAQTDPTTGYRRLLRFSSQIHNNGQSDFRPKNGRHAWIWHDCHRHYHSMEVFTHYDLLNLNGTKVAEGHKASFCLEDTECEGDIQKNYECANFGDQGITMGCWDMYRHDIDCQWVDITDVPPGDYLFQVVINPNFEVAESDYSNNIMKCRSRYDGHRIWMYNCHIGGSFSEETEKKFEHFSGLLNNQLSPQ
Outline: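 Both enzymes assayed in 1.2 M urea, 50 mM sodium borate pH 8.0, 10 mM CaCl, with 30 min compound–enzyme preincubation at 37° C before cadaverine/Amplex Red/HRP addition. Fluorescence followed 60 min at 37° C; linear-slope rates, background-subtracted, as % of DMSO control, fitted by 4-parameter variable-slope curve (bottom fixed at 0).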

[2] = target: T2, Recombinant human LOXL3 (lysyl oxidase like 3) (Homo sapiens, UniProt P58215); test: LOXL3 inhibition assay (fluorometric, cadaverine/Amplex Red/HRP); format: biochemical; conditions: IC50 class; recombinant human LOXL3, cadaverine substrate; read-out: Activity Range LOXL3
T2 construct: purchased R&D systems
T2 sequence (P58215 26-753): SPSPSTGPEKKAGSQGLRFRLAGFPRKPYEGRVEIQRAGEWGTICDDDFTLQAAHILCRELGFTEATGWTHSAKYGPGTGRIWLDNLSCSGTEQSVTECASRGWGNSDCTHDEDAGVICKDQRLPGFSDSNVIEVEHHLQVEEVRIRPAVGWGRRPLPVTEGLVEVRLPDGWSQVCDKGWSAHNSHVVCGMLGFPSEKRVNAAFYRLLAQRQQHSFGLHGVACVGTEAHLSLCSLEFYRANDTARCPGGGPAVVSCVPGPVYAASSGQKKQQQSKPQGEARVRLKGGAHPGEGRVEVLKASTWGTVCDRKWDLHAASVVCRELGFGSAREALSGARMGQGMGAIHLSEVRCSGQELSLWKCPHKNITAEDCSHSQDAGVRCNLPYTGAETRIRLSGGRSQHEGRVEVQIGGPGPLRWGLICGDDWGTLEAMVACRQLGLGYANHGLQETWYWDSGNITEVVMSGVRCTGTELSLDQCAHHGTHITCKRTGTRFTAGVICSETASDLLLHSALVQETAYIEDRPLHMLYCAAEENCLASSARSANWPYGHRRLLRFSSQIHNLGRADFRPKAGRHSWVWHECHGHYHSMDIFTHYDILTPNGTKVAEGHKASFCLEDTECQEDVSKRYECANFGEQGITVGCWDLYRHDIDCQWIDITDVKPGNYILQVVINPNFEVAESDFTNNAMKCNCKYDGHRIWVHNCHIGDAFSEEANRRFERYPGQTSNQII
Method: The ability of compounds to inhibit one or more of the lysyl oxidases LOXL2 and/or LOXL3 was determined using a fluorometric assay. This assay measures the activity of lysyl oxidases by coupling the reaction with horseradish peroxidase-catalyzed […]. The activity assay protocol uses cadaverine as substrate that releases hydrogen peroxide upon transformation by the specific LOX family enzyme present in the sample. Hydrogen peroxide is in turn detected using a red fluorescence substrate for HRP-coupled reactions (Amplex Red Enzyme Assays, Thermo Scientific Fisher). This leads to increase in fluorescence that can be easily detected at Ex/Em=540/590 nm in a fluorescence microplate reader.
Enzymes: Recombinant human LOXL2 (lysyl oxidase like 2) and recombinant human LOXL3 (lysyl oxidase like 3) were purchased from R&D systems and assays were performed in 1.2 M urea, 50 mM sodium borate buffer pH 8.0, and 10 mM CaCl.
Reaction: Final concentration in the LOXL2 and LOXL3 assays were as following and performed in a total volume of […]:
Experimental procedure: 5 μl of freshly prepared reaction buffer were delivered to reaction wells. Compounds were resuspended in 100% DMSO at 10 mM and delivered into buffer using acoustic technology (Echo550; nanoliter range). A 3× solution of LOXL2 or LOXL3 in reaction buffer was prepared (“enzyme solution”) and 5 μL of enzyme solution was added into the reaction wells. Buffer only was added to column 1 for no protein control. Reactions were incubated for 30 minutes at 37° C. A 3×mixture of cadaverine, Amplex Red, and HRP (“Substrate/Detection Mix) was prepared and subsequently 5 μL of the mixture added to each reaction well. Progress of reactions was monitored for 60 minutes at 37° C. using Clariostar plate reader (ex 530-12, ems 600-40). For all activity assays, pan-LOX inhibitor CCT365623 (Tang et al, 2017) and LOXL2/LOXL3 inhibitor PAT-1251 (PharmaKea) were included as standards.
Data analysis: Slope of the linear portion of the progress curve was calculated using Clariostar software. Typical analysis interval was between 8-30 min, but varied between experiments. The background subtracted signals (No protein wells are considered as background) were converted to % activity relative to DMSO controls. Data was analyzed using GraphPad Prism 4 with “sigmoidal dose-response (variable slope)”; 4 parameters with Hill Slope. Constraints: Bottom=Constant equal to 0. Top=Must be less than 120.

[3] = Microsome stability study; format: in vitro ADME, mouse; conditions: for half-life at 2 μM / microsomal CLint at 2 μM / CLint scaled at 2 μM: CD-1, pH 7.4; for half-life at 2 μM / microsomal CLint at 2 μM: male mouse liver microsomes 0.5 mg/mL, NADPH; for CLint scaled at 2 μM: male, read-out: Scaled-up CLint; for CLint scaled at 2 μM / Predicted hepatic CL: mouse liver microsomes
Method: Pooled CD-1 mouse liver microsomes at 0.5 mg/mL were pre-incubated in phosphate buffer (100 mM, pH 7.4) containing 1 mM NADPH and 3 mM MgCl2 in a 96-well plate for 5 minutes at 37° C. Ultra-pure water was added instead of NADPH in the negative control group to exclude the misleading factor that resulted from instability of chemical itself. The reaction was initiated by adding test compound at the final concentration of 2 μM and incubated at 37° C. Aliquots were taken from the incubation at 0, 15, 30, 45 and 60 minutes followed by the addition of 4 volume of cold acetonitrile containing internal standards. Samples were centrifuged and supernatant was used for LC-MS/MS analysis.

SMILES | IC50 [1] [nM] | IC50 [2] [nM] | half-life at 2 μM [3] [h] | microsomal CLint at 2 μM [3] [µL/min/mg] | CLint scaled at 2 μM [3] [mL/min/kg] | Predicted hepatic CL [3] [mL/min/kg]
NCc1ccnc(S(=O)(=O)N2C[C@@H](C(=O)N3CCOCC3)C[C@@H](C3CCCCC3)C2)c1 (racemic) [Example 145, cis-(1-((4-(Aminomethyl)pyridin-2-yl)sulfonyl)-5-cyclohexylpiperidin-3-yl)(morpholino)methanone 2,2,2-trifluoroacetate] | ≤ 500 | 500 to 1000 |  |  |  | 
CS(=O)(=O)N1C[C@H](Oc2cccc(CN)c2)C[C@H](c2ccccc2F)C1 (racemic) [Example 70, cis-(3-((5-(2-Fluorophenyl)-1-(methylsulfonyl)piperidin-3-yl)oxy)phenyl)methanamine 2,2,2-trifluoroacetate] | ≤ 500 | 1000 to 30000 |  |  |  | 
NCc1ccnc(S(=O)(=O)N2C[C@H](C(=O)N3CCOCC3)C[C@H](c3ccccc3)C2)c1 [Example 133B, ((3R,5R)-1-((4-(aminomethyl)pyridin-2-yl)sulfonyl)-5-phenylpiperidin-3-yl)(morpholino)methanone 2,2,2-trifluoroacetate] | ≤ 500 | ≤ 500 |  |  |  | 
CN(C)C(=O)N1C[C@@H](c2ccccc2)C[C@@H](S(=O)(=O)c2cccc(CN)c2)C1.O=C(O)C(F)(F)F (racemic) [Example 74, cis-3-((3-(Aminomethyl)phenyl)sulfonyl)-N,N-dimethyl-5-phenylpiperidine-1-carboxamide 2,2,2-trifluoroacetate] | ≤ 500 | 1000 to 30000 | 1.89 | 12.2 | 53.6 | 33.58

More lines, now with the values ahead:

IC50 [1] [nM] | IC50 [2] [nM] | half-life at 2 μM [3] [h] | microsomal CLint at 2 μM [3] [µL/min/mg] | CLint scaled at 2 μM [3] [mL/min/kg] | Predicted hepatic CL [3] [mL/min/kg] | SMILES
≤ 500 | ≤ 500 | 0.533 | 43.3 | 190 | 61.03 | NCc1ccnc(S(=O)(=O)N2C[C@@H](C(=O)N3CCS(=O)(=O)CC3)C[C@@H](C3CCCCC3)C2)c1.O=C(O)C(F)(F)F (racemic) [Example 146, cis-(1-((4-(Aminomethyl)pyridin-2-yl)sulfonyl)-5-cyclohexylpiperidin-3-yl)(1,1-dioxidothiomorpholino)methanone 2,2,2-trifluoroacetate]
≤ 500 | 1000 to 30000 | 4.49 | 5.14 | 22.5 | 18.00 | CS(=O)(=O)[C@H]1C[C@@H](S(=O)(=O)c2cccc(CN)c2)CN(c2ccccc2)C1 (racemic) [Example 23, cis-(3-((-5-(Methylsulfonyl)-1-phenylpiperidin-3-yl)sulfonyl)phenyl)methanamine]
≤ 500 | ≤ 500 |  |  |  |  | CN(C)C(=O)[C@H]1C[C@@H](C2CCCCC2)CN(S(=O)(=O)c2cc(CN)ccn2)C1 (racemic) [Example 144, cis-1-((4-(Aminomethyl)pyridin-2-yl)sulfonyl)-5-cyclohexyl-N,N-dimethylpiperidine-3-carboxamide 2,2,2-trifluoroacetate]
≤ 500 | ≤ 500 |  |  |  |  | NCc1ccnc(S(=O)(=O)N2C[C@@H](C(=O)N3CCS(=O)(=O)CC3)C[C@@H](c3ccccc3)C2)c1 (racemic) [Example 134, cis-(1-((4-(Aminomethyl)pyridin-2-yl)sulfonyl)-5-phenylpiperidin-3-yl)(1,1-dioxidothiomorpholino)methanone 2,2,2-trifluoroacetate]
